The values that follow come from US8029979B2, “Method for determining the substrate specificity of an enzyme” (JPT Peptide Technologies GmbH, priority 2001, dated 2011).

Ends that are not written are not given here. BA1 = not defined here

What all share (format): biochemical
For experiment [1], the target named is T1, protein kinase A (Bos taurus, UniProt P00517).
T1 construct: purchased Sigma P26452 as printed
Kind of experiment: Phosphorylation of glass-immobilised peptide array by protein kinase A (FIG. 9, Example 33). The settings on record: protein kinase A 10 U/mL, ATP/γ32P-ATP, 30 min at 25° C., maleinimido-functionalised glass, PhosphorImager. Here is the method:
FIG. 9. Precisely 43 serine and/or threonine-containing peptides (potential substrate peptides for kinases) and the corresponding control peptides, each modified at the N-terminus with the dipeptide cysteinyl-β-alanine, were coupled to a maleinimido-functionalised glass surface by a Michael addition (Example 18). In the control peptides the serine and/or threonine residues were replaced by alanine, the sequence remaining otherwise the same. The application was carried out using a NanoPlotter from Gesim. The spot-to-spot distance was 1 mm and 0.8 nL of a peptide solution in 100 mM PBS buffer pH 7.8, containing 20% glycerin, was applied per spot. Here a filled circle represents a serine- or threonine-containing potential substrate peptide and an open circle stands for a control peptide. Three identical subarrays were applied to the glass surface. The numbering of the spots can be seen in FIG. 9C, the sequences of the peptides used are obtained from Example 18. […] After incubation for 30 min at 25° C. the phosphorylation of the corresponding peptides was detected using a FUJIFILM PhosphorImager (Example 39). […]
(§1) After drying the glass surface the quantity of radioactive phosphate incorporated in the glass-surface-bound peptides was determined using a PhosphorImager system (FLA-3000, FUJIFILM). […]

Experiment [2] relates to protein kinase C. The experiment is described as follows: Phosphorylation of glass-immobilised peptide array by protein kinase C (FIG. 8, Example 32). The following applies: protein kinase C 10 U/mL, ATP/γ32P-ATP, 30 min at 25° C., maleinimido-functionalised glass, PhosphorImager. As to the method:
FIG. 8. Precisely 43 serine and/or threonine-containing peptides (potential substrate peptides for kinases) and the corresponding control peptides, each modified at the N-terminus with the dipeptide cysteinyl-β-alanine, were coupled to a maleinimido-functionalised glass surface by a Michael addition (Example 18). In the control peptides the serine and/or threonine residues were replaced by alanine, the sequence remaining otherwise the same. The application was carried out using a NanoPlotter from Gesim. The spot-to-spot distance was 1 mm and 0.8 nL of a peptide solution in 100 mM PBS buffer pH 7.8, containing 20% glycerin, was applied per spot. Here a filled circle represents a serine- or threonine-containing potential substrate peptide and an open circle stands for a control peptide. Three identical subarrays were applied to the glass surface. The numbering of the spots can be seen in FIG. 8C, the sequences of the peptides used are obtained from Example 18. After application of the peptides, the modified glass surface was first pre-incubated for 10 minutes using 10 ml of 100 μM ATP solution in 50 mM of sodium phosphate buffer pH 7.5. The modified glass surface was then covered with a second glass surface and Protein kinase C (10 U/mL) together with ATP/γ^32P-ATP mixture (100 μM/mL; 100 μCi/mL) was then inserted into the intermediate space formed thereby by means of capillary force. After incubation for 30 min at 25° C. the phosphorylation of the corresponding peptides was detected using a FUJIFILM PhosphorImager (Example 38). The spots having higher signal intensity in all three subarrays were assigned to the corresponding peptides phosphorylated by the protein kinase C. […] It is thus clear that such an assembly is suitable for characterising the substrate specificity of a kinase, such as protein kinase C, for example.
Precisely 43 serine- and/or threonine-containing peptides (potential substrate peptides for kinases) and the corresponding control peptides, each modified at the N-terminus with the dipeptide cysteinyl-β-alanine, were coupled to a maleinimido-functionalised glass surface by a Michael addition (see Example 18). The numbering of the spots can be seen from FIG. 8C and the sequences of the peptides used are obtained from Example 18. After application of the peptide, the modified glass surface was first pre-incubated using 10 mL of 100 μM ATP […] solution in 50 mM sodium phosphate buffer pH 7.5 for […] minutes. The modified glass surface was then covered with a cover glass and protein kinase C (10 U/mL) together with ATP/γ-^32P-ATP mixture (100 μM/mL; 100 μCi/mL) was incorporated in the intermediate space formed by means of capillary force. Incubation was then carried out for 30 min at 25° C. […]
as §1

Experiment [3] has as its target T1, protein kinase A. The experiment is described as follows: Incubation of modified glass surface (11760 spots) with protein kinase A (FIG. 6, Example 28). The settings on record: bromoketone-functionalised glass, thioamide linkage, protein kinase A 10 U/mL, 30 min at 25° C. Here is the method:
FIG. 6. A glass surface modified with the peptide Leu-Arg-Arg-Ala-Ser-Leu-Gly-thioamide (see Example 24) amino acid sequence was dissolved in 200 mM sodium phosphate buffer pH 5.5 and at room temperature respectively 1 nL of this solution in an assembly of 70 rows and 168 gaps (total 11760) was applied to the bromoketone-functionalised glass surfaces (Example 10) using a NanoPlotter from Gesim. The spot-to-spot distance was 0.3 mm. The glass surfaces thus treated were then subjected to microwave treatment for 2 min and then incubated for 3 hours at room temperature. Pre-incubation was then carried out for 10 minutes using 10 ml of 100 μM ATP solution in 50 mM of sodium phosphate buffer pH 7.5. […] After incubation for 30 min at 25° C. the phosphorylation of the corresponding peptides was detected using a FUJIFILM PhosphorImager. […] It is furthermore clear that the resolution of the PhosphorImager used here is sufficient to analyse more than 11000 measurement points per biochip. […]
After drying the glass surface the quantity of radioactive phosphate incorporated in the glass-surface-bound peptides was determined using a PhosphorImager system (FLA-3000, FUJIFILM) (see FIG. 6).

Regarding “Arg-Arg-Ile-Ser-Lys-Asp-Asn-Pro-Asp-Tyr-Gln-Gln-Asp-BA1-Cys-NH2 (RRISKDNPDYQQD-{BA1-Cys-NH2}; reading uncertain; also: printed as Arg-Arg-Ile-Ser-Lys-Asp-Asn-Pro-Asp-Tyr-Gln-Gln-Asp-BA1-Cys-NH2) [peptide 83]”, in experiment [1], the “recognised and phosphorylated by protein kinase A on the modified glass surface” value is “not phosphorylated”.

For the substance “Cys-BA1-Ala-Lys-Arg-Arg-Arg-Leu-Ser-Ser-Leu-Arg-Ala-NH2 ({Cys-BA1}-AKRRRLSSLRA-NH2; reading uncertain; also: printed as Cys-BA1-Ala-Lys-Arg-Arg-Arg-Leu-Ser-Ser-Leu-Arg-Ala-NH2) [compound 3]”, the “recognised and phosphorylated by protein kinase C on the modified glass surface” value in experiment [2] is “recognised and phosphorylated”. Consider “Cys-BA1-Gln-Lys-Arg-Pro-Ser-Gln-Arg-Ser-Lys-Tyr-Leu-NH2 ({Cys-BA1}-QKRPSQRSKYL-NH2; reading uncertain; also: printed as Cys-BA1-Gln-Lys-Arg-Pro-Ser-Gln-Arg-Ser-Lys-Tyr-Leu-NH2) [compound 27]”, for which the “recognised and phosphorylated by protein kinase C on the modified glass surface” value in experiment [2] is “recognised and phosphorylated”.

On to “Cys-BA1-Lys-Lys-Arg-Phe-Ser-Phe-Lys-Lys-Ser-Phe-Lys-Leu-NH2 ({Cys-BA1}-KKRFSFKKSFKL-NH2; reading uncertain; also: printed as Cys-BA1-Lys-Lys-Arg-Phe-Ser-Phe-Lys-Lys-Ser-Phe-Lys-Leu-NH2) [compound 41]”, for which the “recognised and phosphorylated by protein kinase C on the modified glass surface” value in experiment [2] was “recognised and phosphorylated”. On the same count and under the same terms, the entry for “Cys-BA1-Pro-Leu-Ser-Arg-Thr-Leu-Ser-Val-Ala-Ala-Lys-Lys-NH2 ({Cys-BA1}-PLSRTLSVAAKK-NH2; reading uncertain; also: printed as Cys-BA1-Pro-Leu-Ser-Arg-Thr-Leu-Ser-Val-Ala-Ala-Lys-Lys-NH2) [compound 23]” is “recognised and phosphorylated”; for “Cys-BA1-Pro-Lys-Asp-Pro-Ser-Gln-Arg-Arg-Arg-NH2 ({Cys-BA1}-PKDPSQRRR-NH2; reading uncertain; also: printed as Cys-BA1-Pro-Lys-Asp-Pro-Ser-Gln-Arg-Arg-Arg-NH2) [compound 43]” it is “recognised and phosphorylated”. As to “Leu-Arg-Arg-Ala-Ser-Leu-Gly-thioamide (LRRASLG-thioamide)”, the “linking of the immobilised kinase substrate tolerated by protein kinase A” value in experiment [3] is on record as “tolerated by the protein kinase A”.
